The subject of assay [1] is mouse leukemia L1210 cells. Put plainly: Inhibition of L1210 cell growth. The format is cell-based. As to the method:
Preliminary biological data for inhibiting cell growth of murine L1210 leukemic cells and human acute promyelocytic leukemia cells (HL-60) during 72 h of exposure to the compounds are given in Table IV. The potencies for inhibiting [^3 H]TdR incorporation into DNA in HL-60 cells during the initial 30-min period are also given in Table IV. It is interesting to note that 1,8-di-O-methyl derivatives are uniformly devoid of activity against L1210 leukemic cells. […] The B/A ratios allow an indirect estimation of whether or not cytotoxicities exerted by these analogues are primarily due to initial inhibition of DNA synthesis. […] Whether these analogues, like m-AMSA, ellipticine, or anthracyclines, act by inhibiting DNA topoisomerase II remains to be explored. […] Our preliminary experiments indicate that the compounds arrest cells in the S and/or G2 phases of the cell cycle (unpublished results).

For assay [2], the system named is human leukemia HL-60 cells. Put plainly: HL-60 cell growth inhibition (72 h). The format is cell-based. The note with it: HL-60, 72 h, read-out: ID50, M [HL-60 cell growth (72 h)] (A). On the procedure:
For cell growth inhibition studies, HL-60 cells […]) were grown in RPMI 1640 media at 37° C. in humidified 5% CO2 for 72 h. Viable cells were counted with the trypan blue exclusion method. The fractional inhibitions at four or five concentrations of compounds (in 0.2% DMSO) were analyzed with a median-effect plot (Chou, T.-C., et al., Adv. Enzyme Regul. 22:27 (1984)) by using a computer program. (Chou, J.; Chou, T.-C. Dose-Effect Analyses with Microcomputer. Quantitation of ID50, LD50, Synergism, Antagonism, Low-dose Risk, Receptor-Binding and Enzyme Kinetics; IBM-PC Series, Elsevier-Biosoft, Elsevier Scientific: Cambridge, U.K., (1986)). The median-effect concentration (ID50) was automatically determined for the x intercept of the median-effect plot. Cell growth in the absence of a compound and in the presence of DMSO was used as a control. DMSO (0.2%) alone inhibited cell growth 3.8±1.2% during the 72-h incubation period.

For assay [3], the system named is [^3 H]TdR incorporation into DNA in HL-60 cells. In words: Inhibition of [3H]TdR incorporation into DNA in HL-60 cells (initial 30 min). The note with it: for IC50: HL-60, initial 30 min exposure, read-out: ID50, M (HL-60 TdR into DNA (B)); for B/A: ratio of ID50 for TdR incorporation (B) to ID50 for cell growth (A), HL-60. The format is cell-based, human. On the procedure: For precursor incorporation studies, each compound at four to six concentrations (0.2% DMSO) was preincubated with HL-60 cells (2.5×10^6 /Ml) for 15 min prior to the addition of [^3 H-methyl]TdR (1 μCi, 0.15 nmol/mL) and was incubated for 30 min. […] The incorporation of radioactivity in DNA in the absence of an analogue in the presence of DMSO was used as a control.

Setting [4] is: Mus musculus, Table IV, L1210, 72 h exposure, read-out: ID50, M (L1210 cell growth).
Where [5] appears, read: Mus musculus, L1210, Table I, read-out: ID50 (the source's name).
Setting [6] is: Mus musculus, L1210, Table I, read-out: ID50 (μg/mL).
Setting [7] is: Table IV, L1210, 72 h exposure, read-out: ID50, M (L1210 cell growth).

≈ marks a conversion by molar mass, not a printed value. Like-named read-outs stand apart in the source and are kept apart here.

Take `O=C1c2cccc(O)c2C(=O)c2c(O)cc(CNCCCO)cc21` [XIa-11]: the IC50 in assay [1] (setting [4]) turned out to be 0.67 µM; in assay [2] (Homo sapiens, 0.2% DMSO), 3.2 µM; in assay [3] (Homo sapiens, 0.5 h) it was 16 µM. The B/A in assay [3] is reported as 5.0.
On to `CCNCc1cc(OC)c2c(c1)C(=O)c1cc(OC)cc(OC)c1C2=O` [IXb-5, 3-(N-ethylamino)methyl-1,6,8-trimethoxy-9,10-anthraquinone], for which the IC50 in assay [1] (setting [5]) is 3.67 µM; in assay [1] (setting [6]), 1.44 µg/mL; in assay [1] (setting [4]), 9.8 µM; in assay [2] (Homo sapiens, 0.2% DMSO) it was 17 µM; in assay [3] (Homo sapiens, 0.5 h), 13 µM. In addition, in assay [3], the B/A was found to be 0.76.
In the case of “6-(Dibromomethyl)-1-(and 8)-hydroxy-3,8(and) 1,3)-dimethoxy-9,10-anthraquinone [VIIb]”, the IC50 is 0.001 µM in assay [1] (setting [7]), 0.097 µM in assay [2] (0.2% DMSO) and 23 µM in assay [3]. The B/A in assay [3] is given as 237.
Regarding `Cc1cc(O)c2c(c1)C(=O)c1cc(O)cc(O)c1C2=O` [IIb], the results for the IC50 in assay [1] (setting [5]) and in assay [1] (setting [6]) were above 335 µM and above 100 µg/mL, respectively.
Consider `COc1cc(OC)c2c(c1)C(=O)c1cc(CNCCO)cc(OC)c1C2=O` [IXb-6, 3-[N-(2-hydroxyethyl)amino]methyl-1,6,8-trimethoxy-9,10-anthraquinone], for which the IC50 is 12.5 µM in assay [1] (setting [5]); 5.1 µg/mL in assay [1] (setting [6]); 17 µM in assay [1] (setting [4]); 110 µM in assay [2] (Homo sapiens, 0.2% DMSO); 26 µM in assay [3] (Homo sapiens, 0.5 h). Moreover, in assay [3], the B/A turned out to be 0.24.
With `CN(C)Cc1cc(O)c2c(c1)C(=O)c1cccc(O)c1C2=O` [XIa-9], the IC50 is 2.2 µM in assay [1] (setting [4]); 2.7 µM in assay [2] (Homo sapiens, 0.2% DMSO); 9.3 µM in assay [3] (Homo sapiens, 0.5 h). In assay [3], the B/A is 3.3.
The corresponding values for `COc1cccc2c1C(=O)c1c(OC)cc(C(Br)Br)cc1C2=O` [IVa, 3-Dibromomethyl-1,8-dimethoxy-9,10-anthraquinone] are 0.89 µM, 2.1 µM, 9 µM and 4.3.
As to `COc1cc(OC)c2c(c1)C(=O)c1cc(CNCCCl)cc(OC)c1C2=O` [IXb-7, 3-[N-(2-chloroethyl)amino]methyl-1,6,8-trimethoxy-9,10-anthraquinone], the IC50 in assay [1] (Mus musculus, L1210, 72 h, read-out: ID50, M (L1210 cell growth)) was determined as 3.2 µM; in assay [2] (Homo sapiens), 5.8 µM; in assay [3] (Homo sapiens, 0.5 h) it was 18 µM. In addition, in assay [3], the B/A came to 3.1.
As to `COc1cc(OC)c2c(c1)C(=O)c1cc(C(Br)Br)cc(OC)c1C2=O` [IVb, 6-(Dibromomethyl)-1,3,8-trimethoxy-9,10-anthraquinone], the IC50 in assay [1] (setting [4]) turned out to be 41 µM; in assay [2] (Homo sapiens, 0.2% DMSO) it was 6 µM; in assay [3] (Homo sapiens, 0.5 h) it was 58 µM. For the same compound, in assay [3], the B/A was determined as 9.7.
For “3-(Bromomethyl)-1(and 8)-Hydroxy-8(and 1)-Methoxy-9,10-anthraquinone [Va]”, the IC50 was found to be 8.8 µM in assay [1] (setting [7]) and 7.1 µM in assay [2] (0.2% DMSO). Also, the B/A in assay [3] was determined as 1.7.
For the compound `COc1cc(OC)c2c(c1)C(=O)c1cc(CBr)cc(OC)c1C2=O` [IIIb, 3-bromomethyl-1,6,8-trimethoxy-9,10-anthraquinone], the IC50 worked out at 0.68 µM in assay [1] (setting [4]); 84 µM in assay [2] (Homo sapiens, 0.2% DMSO); 12 µM in assay [3] (Homo sapiens, 0.5 h). The B/A in assay [3] was 0.14.
For `CCN(CC)Cc1cc(O)c2c(c1)C(=O)c1cc(OC)cc(O)c1C2=O` [XIb-1, 3-(N,N-diethylamino)methyl-1,8-dihydroxy-6-methoxy-9,10-anthraquinone], the IC50 in assay [1] (setting [5]) turned out to be 1.16 µM; in assay [1] (setting [6]), 0.51 µg/mL; in assay [1] (setting [4]), 1.2 µM; in assay [2] (Homo sapiens, 0.2% DMSO), 3.4 µM; in assay [3] (Homo sapiens, 0.5 h) it was 35 µM. For the same compound, the B/A in assay [3] is 10.3.
As for `CCCCNCc1cc(O)c2c(c1)C(=O)c1cccc(O)c1C2=O` [XIa-10], the IC50 is 4.6 µM in assay [1] (setting [4]); 4.1 µM in assay [2] (Homo sapiens, 0.2% DMSO); 25 µM in assay [3] (Homo sapiens, 0.5 h). The B/A in assay [3] turned out to be 6.1.
For `NCc1cc(O)c2c(c1)C(=O)c1cccc(O)c1C2=O` [XIa-8], in that order: 8.5 µM, 11 µM, 25 µM and 2.3.
Take `COc1cc(OC)c2c(c1)C(=O)c1cc(C)cc(OC)c1C2=O` [IIb, 1,3,8-Trimethoxy-6-methyl-9,10-anthraquinone]: the IC50 in assay [1] (setting [4]) was 100 µM; in assay [2] (Homo sapiens, 0.2% DMSO), 49 µM; in assay [3] (Homo sapiens, 0.5 h) it was 21 µM.
Turning to `CCN(CC)Cc1cc(OC)c2c(c1)C(=O)c1cccc(OC)c1C2=O` [IXa-1, 3-[(Diethylamino)methyl]-1,8-dimethoxy-9,10-anthraquinone], the IC50 in assay [1] (setting [5]) stood at 128 µM; in assay [1] (setting [6]) it was 52.3 µg/mL; in assay [1] (setting [4]), 130 µM; in assay [2] (Homo sapiens, 0.2% DMSO) it was 30 µM; in assay [3] (Homo sapiens, 0.5 h) it was 19 µM. Moreover, the B/A in assay [3] is on record as 6.3.
Regarding `COc1cc(OC)c2c(c1)C(=O)c1cc(CN(CCO)CCO)cc(OC)c1C2=O` [IXb-2, 3-[N,N-bis(2-hydroxethyl)amino]methyl-1,6,8-trimethoxy-9,10-anthraquinone], the IC50 is 27.7 µM in assay [1] (setting [5]); 12.5 µg/mL in assay [1] (setting [6]); above 27.6 µM in assay [1] (Mus musculus, L1210, Table II, antileukemic activity, read-out: L1210: ID50); above 27 µM in assay [1] (setting [4]); 100 µM in assay [2] (Homo sapiens, 0.2% DMSO); 17 µM in assay [3] (Homo sapiens, 0.5 h). The B/A in assay [3] is 0.17.
As to “3-(Dibromomethyl)-1(and 8)-hydroxy-8(and 1)-methoxy-9,10anthraquinone [VIIa]”, the IC50 is 4.2e-05 µM in assay [1] (setting [7]), 0.06 µM in assay [2] (0.2% DMSO) and 13 µM in assay [3]. Besides, the B/A in assay [3] came out at 217.
`O=C1c2cccc(O)c2C(=O)c2c(O)cc(CN3CCCC3)cc21` [XIa-13]: the IC50 turned out to be 1.6 µM in assay [1] (setting [4]); 2.1 µM in assay [2] (Homo sapiens, 0.2% DMSO); 10 µM in assay [3] (Homo sapiens, 0.5 h). Besides, the B/A in assay [3] is 4.8.
For `COc1cc(O)c2c(c1)C(=O)c1cc(C(Br)Br)cc(O)c1C2=O` [VIIIb, 6-(Dibromomethyl)-3-methoxy-1,8-dihydroxy-9,10-anthraquinone], in that order: 0.001 µM, 0.19 µM, 110 µM and 579.
Turning to `CC(C)NC(=O)OCCN(CCOC(=O)NC(C)C)Cc1cc(O)c2c(c1)C(=O)c1cccc(O)c1C2=O` [XIa-12], the IC50 was found to be 27 µM in assay [1] (setting [4]); 27 µM in assay [2] (Homo sapiens, 0.2% DMSO); 17 µM in assay [3] (Homo sapiens, 0.5 h). Besides, the B/A in assay [3] is recorded as 0.63.
`COc1cc(O)c2c(c1)C(=O)c1cc(CBr)cc(O)c1C2=O` [VIb, 3-bromomethyl-1,8-dihydroxy-6-methoxy-9,10-anthraquinone]: the IC50 in assay [1] (setting [4]) worked out at 59 µM; in assay [2] (Homo sapiens, 0.2% DMSO) it was 25 µM; in assay [3] (Homo sapiens, 0.5 h) it was 340 µM. Besides, the B/A in assay [3] was 13.6.
For `O=C1c2cccc(O)c2C(=O)c2c(O)cc(C(Br)Br)cc21` [VIIIa, 3-(Dibromomethyl)-1,8-dihydroxy-9,10-anthraquinone], in that order: 0.44 µM, 2.5 µM, 39 µM and 15.6.
For `O=C1c2cccc(O)c2C(=O)c2c(O)cc(Cn3ccnc3)cc21` [XIa-15], in that order: 7.4 µM, 4.8 µM, 43 µM and 9.0.
Turning to `COc1cccc2c1C(=O)c1c(OC)cc(CN(CCCl)CCCl)cc1C2=O` [IXa-3, 3-[N,N-bis(2-chloroethyl)amino]methyl-1,8-dimethoxy-9,10-anthraquinone], the “ID50” value in assay [1] (Table I) came to 5.73 µg/mL (≈ 13.6 µM). The IC50 in assay [1] (Table I, read-out: ID50 (the source's name)) was found to be 12.5 µM; in assay [1] (setting [7]) it was 13 µM; in assay [3], 14 µM. In assay [3], the B/A stood at 7.8.
For the compound `Cc1cc(O)c2c(c1)C(=O)c1cccc(O)c1C2=O` [IIa], the IC50 in assay [1] (setting [5]) is above 390 µM; in assay [1] (setting [6]), above 100 µg/mL.

These data come from patent US5053431A, “Derivatives of chrysophanol as topoisomerase II inhibitors” (Sloan-Kettering Institute For Cancer Research, priority 1990, dated 1991).
